Experimental data reported in patent US10017741B2, “Compositions and methods for obtaining enriched mesenchymal stem cell cultures” (StemCell Technologies Inc., priority 2013, dated 2018).
Where “and” joins values, the source holds several entries; their conditions need not be identical. Equal values may be shown once. Entries after “also recorded” stand apart in the source; their conditions may differ.

Legend:
[1] = test system: human BM-derived MSCs; experiment: Adipogenic and osteogenic differentiation of human BM-derived MSCs; assay type: cell-based; details: human BM-MSC expanded to P2 in 1 μM, 3 weeks differentiation, Oil red O / silver nitrate
Description: (§1) c. Expansion of Human BM and Mouse BM and CB-Derived Cells Assay • 1. […] Cultures were allowed to grow for 10-14 days until adherent cells achieved 70 to 80% confluence. Mouse cultures were maintained under normal (5% CO2) or hypoxic conditions (5% CO2/5% O2) at 37 C in a cell culture incubator. Human cultures were maintained under 5% CO2 at 37 C in a humidified cell culture incubator. • 3. Adherent cells were passaged by releasing cultures from flask. Cultures were washed with 5 mL PBS and then 5 mL of 0.25% trypsin solution ([…] catalogue #07901) was added and the flasks incubated for 10 min at 37 C. To each flask, 5 mL complete medium was added to stop trypsin activity. • 4. Released cells were collected into a tube and centrifuged at 300×g for 5 minutes. • 5. Cells were resuspended in 2 mL of medium and counted using a hemocytometer. • 6. […] P1 cultures were incubated until they reached 70 to 80% confluence. • 8. Passaged cultures can be used at any time from P0 to P10 as needed for different applications.
BM-derived cultures were isolated as described above and expansion assays setup as described above. […] At the end of P2, cell were dissociated by trypsin digestion and replated at 3×10^4 cells/cm^2 in 12-well plates for differentiation assays. Differentiation cultures were maintained for 3 weeks in adipogenic or osteogenic differentiation media. […]

[2] = test system: BM-MSCs (CD45−/CD29+/Sca1+); experiment: Total cell count with flow cytometry, BM-MSC cultures; assay type: cell-based, mouse
Description: (§2) d. Flow Cytometry Analysis • 1. Cultures of BM and CB-derived cells were trypsinized for 10 minutes and an equal volume of complete medium was added to cultures to stop trypsin activity • 2. Cell suspension was filtered through a 40 μm strainer, and cells counted using a hemocytometer • 3. Suspension was spun down at 300×g for 5 minutes. • 4. Supernatant was removed and cell pellet resuspended in FACS buffer (PBS with 2% FBS and 1 mM EDTA) • 5. A total of 1×10^5 cells in 300 μL FACS buffer was used for each flow cytometry analysis tube, including unstained, viability, compensation, and isotype controls. • 6. Cell suspensions were stained with fluorophore-labeled antibodies against CD45, CD11b, and Sca1, CD29, and viability dye. • 7. Cell suspensions were analyzed on a flow cytometer using compensation and isotype control to determine laser voltage and gating. • 8. Samples were gated on viable CD45^+ cells and 10,000 events per sample were collected. Alternatively, cells were gated on viable CD45^− cells and out of this gate the proportion of CD29+/Sca1^+ cells obtained.
Prior to flow cytometry, control and GW2580-treated cultures of BM- and CB-MSC were dissociated from tissue culture flasks by trypsinization and the total number of cells counted with the aid of a hemocytometer. Flow cytometry analysis was performed and the ratio of CD45^− cells and CD45^−/CD29^+/Sca1^+ cells applied to the total number of cells to obtain the actual number of these cells in culture (Table 2).

[3] = test system: mouse BM-MSC cultures; experiment: Osteogenic and adipogenic differentiation of mouse BM-MSC; assay type: cell-based
Description: During the process of culture, expansion, or maintenance of MSCs, it is imperative that these cells maintain their functional properties so they can be used for specific downstream applications, including characterization by differentiation. […] BM-MSCs that were initially exposed to vehicle- or GW2580-containing media were plated at 3 different densities (FIG. 18A) in MesenCult Proliferation Medium and allowed to adhere to the plates overnight. Cultures were then differentiated for 14 days in MesenCult Osteogenic Medium, and the medium changed every 3 days. Osteogenic cultures were then fixed and stained for alkaline phosphates (ALP) activity (red areas) and mineralization (black areas). In control cultures ([…]), a modest differentiation into the osteogenic lineage was only observed when cultures were seeded at the highest density of 1.2×10^5 cells/cm^2. […] Cultures were then differentiated for 14 days into the adipogenic and osteogenic lineages (FIG. 18B).

[4] = test system: CB-derived cultures (CD45+/CD11b+ macrophages, Sca1+ monocytes); experiment: Flow cytometry of CB-derived expansion cultures; assay type: cell-based, mouse
Description: as §1, §2

[5] = test system: BM-derived cultures (CD45+/CD11b+ macrophages, Sca1+ monocytes); experiment: Flow cytometry of BM-derived expansion cultures; assay type: cell-based, mouse
Description: as §1, §2

[6] = test system: BM-derived cultures (macrophage contamination, MSC morphology); experiment: Images of BM-derived expansion cultures; assay type: cell-based, mouse; details: for macrophage contamination and MSC enrichment (images): BM
Description: as §1

[7] = test system: 26 other kinases; details: cited from earlier work
[8] = BM-MSCs, 2.5 uM GW2580, 14 days during P0
[9] = CB, 1 μM P0-P1 then vehicle P2-P3, analysed at P3, adherent cells
[10] = CB, 1 μM P0-P1 then vehicle P2-P3, analysed at P3, non-adherent cells
[11] = CB, P4, DMSO P0-P2 then 1 μM GW2580 P3-P4, or P4 control cultures EasySep-enriched

## COc1ccc(COc2ccc(Cc3cnc(N)nc3N)cc2OC)cc1 [GW2580, 5-(3-Methoxy-4-((4-methoxybenzyl)oxy)benzyl)pyrimidine-2,4-diamine]
[1]
  adipogenic and osteogenic differentiation vs control-expanded cultures: differentiated equally well
[2]; BM-MSC, 2.5 uM GW2580
  actual increase in BM-MSCs (CD45−/CD29+/Sca1+) vs control: 0.25 fold
  increase in number of CD45−/CD29+/Sca1+ MSCs vs control: 26%
[2]; [8]
  Actual number of cells, CD45−: 665,331
  Actual number of cells, CD45−/CD29+/Scal+: 639,450
  CD45−, Percent (Flow Cytometry): 70.48%
  total cells: 9.44E+05
[2]; BM-MSCs, 2.5 uM GW2580, 14 days during P0, out of CD45− gate
  CD45−/CD29+/Scal+, Percent (Flow Cytometry): 96.11%
[3]; BM-MSC, 1 uM for 2 passages, seeded at 4.0×10^4 cells/cm^2, 14 days
  osteogenic differentiation (ALP activity, mineralization): a significant and robust increase in osteogenic differentiation
[3]; BM-MSC, 2.5 uM for 2 passages, plated at 4.0×10^4 cells/cm^2, 14 days
  adipogenic and osteogenic differentiation (Oil Red O, ALP/mineralization): substantial adipogenic and osteogenic differentiation
[3]; mouse BM-MSC exposed to GW2580 during expansion
  differentiation into osteogenic and adipogenic lineages vs control cultures: stronger and more robust differentiation
[4]; CB, 1 μM
  dose-response increase in CD45+/CD11b+/Sca1+ hematopoietic monocytes: 18%
[4]; CB, 1 μM (control 7%)
  number of CD45+/CD11b+/Sca1+ monocytes: 25%
[4]; CB, 1 μM (control 78%)
  number of CD45+ cells: 64%
[4]; CB, 1 μM (control 93%)
  CD45+/CD11b+ mature macrophages: 75%
[4]; [9]
  CD45+/CD11b+/Sca1+ monocytes, of CD45+ cells: 2%
  CD45+/CD11b+/Sca1− mature macrophages, of CD45+ cells: 97%
[4]; [10]
  CD45+/CD11b+/Sca1+ monocytes, of CD45+ cells: < 1%
  CD45+/CD11b+/Sca1− mature macrophages, of CD45+ cells: 99%
[4]; CB, 1 μM P0 to P2
  CD11b+/Sca1+ hematopoietic monocytes, of CD45+ cells: 28%
  CD11b+/Sca1− mature macrophages, of CD45+ cells: 62%
  overall reduction in CD45+ cells: 15%
  reduction in CD45+/CD11b+/Sca1+ monocyte differentiation into mature macrophage (increase in Sca1+ fraction vs control): 22%
[4]; CB, 1 μM P0 to P3
  CD11b+/Sca1+ hematopoietic monocytes, of CD45+ cells: 20%
  CD11b+/Sca1− mature macrophages, of CD45+ cells: 76%
  overall reduction in CD45+ cells: 55%
  reduction in CD45+/CD11b+/Sca1+ monocyte differentiation into macrophage (increase in Sca1+ cells vs control): 8%
[4]; CB, 1 μM, at P3
  reduction in CD45+/CD11b+/Sca1− mature macrophage differentiation: 12%
[4]; CB, 5 μM
  dose-response increase in CD45+/CD11b+/Sca1+ hematopoietic monocytes: 32%
[4]; CB, 5 μM (control 7%)
  number of CD45+/CD11b+/Sca1+ monocytes: 39%
[4]; CB, 5 μM (control 78%)
  number of CD45+ cells: 36%
[4]; CB, 5 μM (control 93%)
  CD45+/CD11b+ mature macrophages: 60%
[4]; CB, 10 μM
  dose-response increase in CD45+/CD11b+/Sca1+ hematopoietic monocytes: 41%
[4]; CB, 10 μM (control 7%)
  number of CD45+/CD11b+/Sca1+ monocytes: 48%
[4]; CB, 10 μM (control 78%)
  number of CD45+ cells: 30%
[4]; CB, 10 μM (control 93%)
  CD45+/CD11b+ mature macrophages: 50%
[4]; CB, P1, 1 μM
  CD45+/CD11b+ mature macrophages, of total viable cells: 34%
  reduction in macrophages vs control: 50%
[4]; [11]
  CD11b+/Sca1+ monocytes, of CD45+ cells: about 75%
  CD11b+/Sca1− mature macrophages, of CD45+ cells: around 25%
[4]; CB-derived cultures, 1 μM up to P2
  CD45+/CD11b+ mature macrophages, of viable cells: < 1%
[5]; BM, 1 μM
  number of CD45+/CD11b+/Sca1+ cells: 55%
[5]; BM, 1 μM (control 52%)
  number of CD45+ cells: 45%
[5]; BM, 1 μM P0 to P2
  CD11b+/Sca1+ hematopoietic monocytes, of CD45+ cells: 44%
  CD11b+/Sca1− mature macrophages, of CD45+ cells: 56%
  overall reduction in CD45+ cells: 18%
  reduction in CD45+/CD11b+/Sca1+ monocyte differentiation into mature macrophage (increase in Sca1+ fraction vs control): 36%
[5]; BM, 1 μM P0 to P3
  CD11b+/Sca1+ hematopoietic monocytes, of CD45+ cells: 52%
  CD11b+/Sca1− mature macrophages, of CD45+ cells: 41%
  overall reduction in CD45+ cells: 64%
  reduction in CD45+/CD11b+/Sca1+ monocyte differentiation into macrophages (monocytes prevented from differentiating): > 50% and 52%
[5]; BM, 1 μM, at P3
  reduction in CD45+/CD11b+/Sca1− mature macrophage differentiation: > 50%
[5]; BM, 5 μM
  number of CD45+/CD11b+/Sca1+ cells: 40%
[5]; BM, 5 μM (control 52%)
  number of CD45+ cells: 33%
[5]; BM, 10 μM
  number of CD45+/CD11b+/Sca1+ cells: 34%
[5]; BM, 10 μM (control 52%)
  number of CD45+ cells: 28%
[5]; BM, P1, 1 μM
  CD45+/CD11b+ mature macrophages, of total viable cells: 60% and 62%
  reduction in macrophages vs control: 20%
[5]; BM-derived cultures, 1 μM up to P2
  CD45+/CD11b+ mature macrophages, of viable cells: < 1%
[6]; 1 μM continuous P0-P3
  macrophage contamination and MSC enrichment (images): have reduced numbers of macrophages; also recorded: contain a much reduced number of these contaminating macrophages
[6]; 1 μM, P2
  macrophage contamination and MSC enrichment (images): a much reduced number of macrophages is observed; also recorded: enriched and mostly devoid of macrophage contamination
[6]; BM, 1, 5 and 10 μM
  macrophage contamination and MSC appearance (images): have reduced numbers of contaminating macrophages; also recorded: a noticeable decrease in macrophages was noticed
[7]
  activity against 26 other kinases tested: inactive
